This is an account of results in patent US20250214991A1 (Oncopia Therapeutics, Inc. d/b/a/ SK Life Science Labs, priority 2022, published 2025).

Experiment [1] addresses IKZF1 (Homo sapiens (Human), UniProt Q13422+Q96SW2). The experiment in a line: In vitro IKZF1 HiBit Assay (HEK293T Flp-in-HiBiT-IKZF1 stable cell line). It counts as cell-based. To be noted: HEK293T Flp-in-HiBiT-IKZF1 stable cell line, 6 hrs incubation; for DC50: read-out: IKZF1 HiBit DC50; for Dmax: HEK-293T, read-out: IKZF1 HiBit Dmax (%). The method, boiled down: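 Degradation was measured as loss of luminescence from the HiBiT-IKZF1 tag after 6 h compound treatment, with 0.1% final DMSO, in stable HEK293T Flp-in cells. Values were normalized to DMSO, giving the 50% degradation concentration and the maximal degradation range.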

In experiment [2] the target is T1, IKZF2 (Homo sapiens (Human), UniProt Q96SW2+Q9UKS7). The experiment in a line: In vitro IKZF2 HiBit Assay (HEK293T Flp-in-HiBiT cells). It counts as cell-based. Conditions: HEK293T Flp-in-HiBiT cells, 6 hrs incubation; for DC50: read-out: IKZF2 HiBit DC50; for Dmax: HEK-293T, read-out: IKZF2 HiBit Dmax (%). The method, boiled down:
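Remaining tagged Helios was read as lytic HiBiT/LgBiT luminescence normalized to DMSO, yielding binned DC50 and Dmax values. Treatment ran 6 h, with compounds at 11 three-fold doses diluted from 1 mM and 0.1% final DMSO. The cells were HEK293T Flp-in with CRISPR knock-in of HiBiT at the IKZF2 N-terminus.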
On the technique in general: HiBiT is a short tag that completes a luciferase, so light tracks the accessible tagged protein.

Experiment [3] addresses T1, IKZF2. In words: In vitro IKZF2 FACS Assay in Jurkat cells. To be noted: 24 hrs; for DC50: half maximal degradation concentration; for Dmax: maximal degradation percentage. It counts as cell-based. As for the experimental part:
In vitro IKZF2 FACS Assay
DC50, A: <1 nM; B: 1-10 nM; C: 10-100 nM; D: 100-1000 nM; E: >1000 nM. Dmax, A: >80%; B: 60-80%; C: 40-60%; D: 20-40%; E: <20%.

Experiment [4] deals with CRBN/DDB1 (Homo sapiens (Human), UniProt Q96SW2). The experiment in a line: IC50 measurements for binding to CRBN/DDB1 (HTRF). To be noted: His tagged CRBN+DDB, Cy5-labeled Thalidomide probe, one hour. The method, boiled down: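 Serially diluted compounds compete with a Cy5-labeled thalidomide tracer (60 nM) for His-tagged CRBN-DDB1 (2 nM), detected via anti-6His Tb cryptate (0.4 nM); buffer HEPES pH 7.5 with TCEP, Brij-35, NaCl, BSA. One-hour room-temperature incubation, HTRF signal read, IC50 by four-parameter curve.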
Chain of CRBN/DDB1 (Q96SW2 whole entry, species assumed): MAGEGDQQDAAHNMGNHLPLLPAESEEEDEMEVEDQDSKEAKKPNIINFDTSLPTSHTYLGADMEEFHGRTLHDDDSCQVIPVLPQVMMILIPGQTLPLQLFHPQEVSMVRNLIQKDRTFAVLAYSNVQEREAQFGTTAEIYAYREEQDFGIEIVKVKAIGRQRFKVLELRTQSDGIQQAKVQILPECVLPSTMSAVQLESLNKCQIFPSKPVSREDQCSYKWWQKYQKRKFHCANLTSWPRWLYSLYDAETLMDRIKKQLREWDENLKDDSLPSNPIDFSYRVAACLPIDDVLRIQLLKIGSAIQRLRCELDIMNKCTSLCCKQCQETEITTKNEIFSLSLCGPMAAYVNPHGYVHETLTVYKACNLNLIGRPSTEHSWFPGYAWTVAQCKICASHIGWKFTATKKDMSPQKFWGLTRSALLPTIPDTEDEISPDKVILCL
Chain of CRBN/DDB1 (Q16531 whole entry partner, species assumed): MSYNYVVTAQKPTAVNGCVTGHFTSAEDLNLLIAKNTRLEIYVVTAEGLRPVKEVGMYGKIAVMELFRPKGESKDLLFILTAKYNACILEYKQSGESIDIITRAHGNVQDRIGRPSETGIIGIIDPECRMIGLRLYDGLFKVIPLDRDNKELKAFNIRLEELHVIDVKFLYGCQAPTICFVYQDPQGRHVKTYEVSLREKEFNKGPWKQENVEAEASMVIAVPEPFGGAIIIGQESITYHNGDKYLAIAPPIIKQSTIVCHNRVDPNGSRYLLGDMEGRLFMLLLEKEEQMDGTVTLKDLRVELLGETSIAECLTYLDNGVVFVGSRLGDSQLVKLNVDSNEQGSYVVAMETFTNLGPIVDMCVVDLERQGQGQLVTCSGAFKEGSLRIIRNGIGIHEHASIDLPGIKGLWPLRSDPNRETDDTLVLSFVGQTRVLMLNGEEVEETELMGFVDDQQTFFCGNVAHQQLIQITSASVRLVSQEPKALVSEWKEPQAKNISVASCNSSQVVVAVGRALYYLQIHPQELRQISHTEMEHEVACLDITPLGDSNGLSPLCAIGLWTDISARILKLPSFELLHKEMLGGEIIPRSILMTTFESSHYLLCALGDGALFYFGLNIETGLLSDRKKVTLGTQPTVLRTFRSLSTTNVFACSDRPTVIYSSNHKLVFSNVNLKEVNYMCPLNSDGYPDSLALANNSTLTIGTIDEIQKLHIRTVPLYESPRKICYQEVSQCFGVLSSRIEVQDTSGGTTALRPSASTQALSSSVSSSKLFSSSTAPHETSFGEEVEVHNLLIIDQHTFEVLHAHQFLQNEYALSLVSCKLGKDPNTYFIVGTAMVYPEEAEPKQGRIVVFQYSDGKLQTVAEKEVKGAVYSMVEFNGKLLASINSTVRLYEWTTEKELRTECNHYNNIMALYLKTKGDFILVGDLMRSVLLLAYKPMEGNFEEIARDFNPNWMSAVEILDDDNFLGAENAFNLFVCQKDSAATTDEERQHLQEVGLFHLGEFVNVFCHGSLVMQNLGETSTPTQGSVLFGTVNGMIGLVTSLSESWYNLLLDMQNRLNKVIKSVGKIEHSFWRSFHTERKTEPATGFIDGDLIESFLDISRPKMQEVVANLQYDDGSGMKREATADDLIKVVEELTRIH

Chain of IKZF1 (Q13422 whole entry): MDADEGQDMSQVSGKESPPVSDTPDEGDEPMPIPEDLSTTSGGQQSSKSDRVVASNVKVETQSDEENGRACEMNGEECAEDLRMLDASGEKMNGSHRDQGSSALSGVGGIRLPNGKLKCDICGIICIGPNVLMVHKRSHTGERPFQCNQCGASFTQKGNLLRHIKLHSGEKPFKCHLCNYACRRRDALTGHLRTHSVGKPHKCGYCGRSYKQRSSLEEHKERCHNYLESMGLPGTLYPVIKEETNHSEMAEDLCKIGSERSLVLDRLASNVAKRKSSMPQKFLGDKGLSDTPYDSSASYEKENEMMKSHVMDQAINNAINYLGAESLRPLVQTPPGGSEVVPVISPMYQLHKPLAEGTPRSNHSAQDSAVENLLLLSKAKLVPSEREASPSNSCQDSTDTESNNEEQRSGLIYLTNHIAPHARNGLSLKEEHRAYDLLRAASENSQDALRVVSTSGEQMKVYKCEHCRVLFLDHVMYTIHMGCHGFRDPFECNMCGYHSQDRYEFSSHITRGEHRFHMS
Chain of IKZF1 (Q96SW2 whole entry): as the sequence (Q96SW2 whole entry, species assumed) above
Chain of IKZF1 (Q16531 2-1140 partner): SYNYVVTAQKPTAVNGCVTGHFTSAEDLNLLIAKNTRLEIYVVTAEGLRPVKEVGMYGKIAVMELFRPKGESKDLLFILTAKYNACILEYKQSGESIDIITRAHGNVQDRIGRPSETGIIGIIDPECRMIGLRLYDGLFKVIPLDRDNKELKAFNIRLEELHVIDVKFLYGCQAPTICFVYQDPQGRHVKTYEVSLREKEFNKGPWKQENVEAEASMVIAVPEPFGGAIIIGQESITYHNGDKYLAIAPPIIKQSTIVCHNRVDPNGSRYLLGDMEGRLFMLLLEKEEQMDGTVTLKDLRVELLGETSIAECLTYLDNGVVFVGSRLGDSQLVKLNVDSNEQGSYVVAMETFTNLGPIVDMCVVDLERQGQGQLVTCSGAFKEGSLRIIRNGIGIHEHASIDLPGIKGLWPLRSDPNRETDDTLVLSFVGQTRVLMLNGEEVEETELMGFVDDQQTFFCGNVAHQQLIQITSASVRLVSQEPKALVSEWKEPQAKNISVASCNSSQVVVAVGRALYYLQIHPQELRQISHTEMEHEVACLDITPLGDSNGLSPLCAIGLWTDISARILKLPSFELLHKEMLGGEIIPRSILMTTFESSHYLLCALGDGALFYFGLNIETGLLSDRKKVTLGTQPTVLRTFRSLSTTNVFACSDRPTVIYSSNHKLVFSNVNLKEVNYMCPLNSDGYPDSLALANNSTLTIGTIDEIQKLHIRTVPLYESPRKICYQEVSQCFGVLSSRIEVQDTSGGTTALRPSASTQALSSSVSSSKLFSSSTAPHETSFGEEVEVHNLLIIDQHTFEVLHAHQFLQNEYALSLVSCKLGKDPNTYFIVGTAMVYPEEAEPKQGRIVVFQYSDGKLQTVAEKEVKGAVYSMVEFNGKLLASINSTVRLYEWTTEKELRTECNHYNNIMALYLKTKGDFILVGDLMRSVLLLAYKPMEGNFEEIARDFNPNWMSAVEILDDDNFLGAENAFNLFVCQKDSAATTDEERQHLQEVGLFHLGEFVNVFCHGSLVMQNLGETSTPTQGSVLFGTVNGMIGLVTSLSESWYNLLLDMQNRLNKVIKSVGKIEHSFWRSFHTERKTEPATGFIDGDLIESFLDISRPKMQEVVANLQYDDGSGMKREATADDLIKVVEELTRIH
T1 sequence (Q9UKS7 whole entry): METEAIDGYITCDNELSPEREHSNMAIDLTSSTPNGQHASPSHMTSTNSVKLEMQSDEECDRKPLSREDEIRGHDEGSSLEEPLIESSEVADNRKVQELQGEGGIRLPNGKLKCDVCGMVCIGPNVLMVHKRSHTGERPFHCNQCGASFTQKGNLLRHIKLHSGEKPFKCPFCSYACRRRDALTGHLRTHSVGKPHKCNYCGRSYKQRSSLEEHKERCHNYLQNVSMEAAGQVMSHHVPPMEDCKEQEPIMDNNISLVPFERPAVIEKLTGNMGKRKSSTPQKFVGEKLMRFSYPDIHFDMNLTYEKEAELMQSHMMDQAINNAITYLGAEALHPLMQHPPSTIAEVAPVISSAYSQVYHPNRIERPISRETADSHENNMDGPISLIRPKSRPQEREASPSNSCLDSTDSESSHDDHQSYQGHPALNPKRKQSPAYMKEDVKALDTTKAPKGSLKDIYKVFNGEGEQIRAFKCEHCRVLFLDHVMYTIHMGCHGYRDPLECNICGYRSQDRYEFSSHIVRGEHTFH
T1 sequence (Q96SW2 whole entry): as the sequence (Q96SW2 whole entry, species assumed) above
T1 sequence (Q16531 2-1140 partner): as the sequence (Q16531 2-1140 partner) above

For the compound `O=C1CCC(N2Cc3c(ccc(-c4cc(CN5CC6COCC6C5)c5ccn(C6CS(=O)(=O)C6)c5n4)c3F)C2=O)C(=O)N1` (stereo not drawn) [Example 269, 3-(5-(1-(1,1-dioxidothietan-3-yl)-4-((tetrahydro-1H-furo[3,4-c]pyrrol-5 (3H)-yl)methyl)-1H-pyrrolo[2,3-b]pyridin-6-yl)-4-fluoro-1-oxoisoindolin-2-yl) piperidine-2,6-dione], the DC50 in experiment [1] is 10 to 100 nM; in experiment [2] it was 1 to 10 nM; in experiment [3] it was 1 to 10 nM. Further, the Dmax in experiment [1] was 20 to 40%; in experiment [2] it was > 80%; in experiment [3], > 80%.

On to `Cc1nn(C2COC2)c2nc(-c3ccc4c(c3)CN(C3CCC(=O)NC3=O)C4=O)cc(CN3CCCC3)c12` (stereo not drawn) [Example 246, 3-(5-(3-methyl-1-(oxetan-3-yl)-4-(pyrrolidin-1-ylmethyl)-1H-pyrazolo[3,4-b]pyridin-6-yl)-1-oxoisoindolin-2-yl) piperidine-2,6-dione], for which the values for the DC50 in experiment [1], in experiment [2] and in experiment [3] were > 10000 nM, 1 to 10 nM and 1 to 10 nM, respectively. The values for the Dmax in experiment [1], in experiment [2] and in experiment [3] were < 20%, > 80% and > 80%, respectively.

For the compound `Cc1cc2c(CN3CCCC3)cc(-c3ccc4c(c3)CN(C3CCC(=O)NC3=O)C4=O)nc2n1C1COC1` (stereo not drawn) [Example 275, 3-(5-(2-methyl-1-(oxetan-3-yl)-4-(pyrrolidin-1-ylmethyl)-1H-pyrrolo[2,3-b]pyridin-6-yl)-1-oxoisoindolin-2-yl) piperidine-2,6-dione], the DC50 in experiment [1] was > 10000 nM; in experiment [2] it was 1 to 10 nM; in experiment [3] it was 10 to 100 nM. The results for the Dmax in experiment [1], in experiment [2] and in experiment [3] were < 20%, 60 to 80% and 60 to 80%, respectively.

For the compound `O=C1CCC(N2Cc3cc(-c4cc(CN5CCCC5)c5c(C(F)(F)F)nn(C6COC6)c5n4)ccc3C2=O)C(=O)N1` (stereo not drawn) [Example 245, 3-(5-(1-(oxetan-3-yl)-4-(pyrrolidin-1-ylmethyl)-3-(trifluoromethyl)-1H-pyrazolo[3,4-b]pyridin-6-yl)-1-oxoisoindolin-2-yl) piperidine-2,6-dione], the DC50 was > 10000 nM in experiment [1], 1 to 10 nM in experiment [2] and 1 to 10 nM in experiment [3]. Further, the Dmax was < 20% in experiment [1], 40 to 60% in experiment [2] and 40 to 60% in experiment [3].

For the compound `Cn1cc(-n2ccc3c(CN4CCCC4)cc(-c4ccc5c(c4)CN(C4CCC(=O)NC4=O)C5=O)nc32)cn1` (stereo not drawn) [Example 248, 3-(5-(1-(1-methyl-1H-pyrazol-4-yl)-4-(pyrrolidin-1-ylmethyl)-1H-pyrrolo[2,3-b]pyridin-6-yl)-1-oxoisoindolin-2-yl) piperidine-2,6-dione], the DC50 in experiment [1] is 100 to 1000 nM; in experiment [2], < 1 nM; in experiment [3], < 1 nM. The Dmax was 20 to 40% in experiment [1], > 80% in experiment [2] and > 80% in experiment [3].

For `O=C1CCC(N2Cc3c(ccc(-c4cc(CN5CCC6(CC5)COC6)c5ccn(C6CS(=O)(=O)C6)c5n4)c3F)C2=O)C(=O)N1` (stereo not drawn) [Example 272, 3-(5-(4-((2-oxa-7-azaspiro[3.5]nonan-7-yl)methyl)-1-(1,1-dioxidothietan-3-yl)-1H-pyrrolo[2,3-b]pyridin-6-yl)-4-fluoro-1-oxoisoindolin-2-yl) piperidine-2,6-dione], the values for the DC50 in experiment [1], in experiment [2] and in experiment [3] were 10 to 100 nM, 1 to 10 nM and 1 to 10 nM, respectively. The Dmax in experiment [1] was 40 to 60%; in experiment [2] it was > 80%; in experiment [3] it was > 80%.

Regarding `COC[C@@H]1CCCN1Cc1cc(-c2ccc3c(c2)CN(C2CCC(=O)NC2=O)C3=O)nc2c1ccn2C1COC1` (stereo partly drawn) [Example 250, 3-(5-(4-(((S)-2-(methoxymethyl)pyrrolidin-1-yl)methyl)-1-(oxetan-3-yl)-1H-pyrrolo[2,3-b]pyridin-6-yl)-1-oxoisoindolin-2-yl) piperidine-2,6-dione], the figures for the DC50 in experiment [1], in experiment [2] and in experiment [3] were > 10000 nM, 1 to 10 nM and 1 to 10 nM, respectively. Also, the Dmax in experiment [1] is < 20%; in experiment [2], 60 to 80%; in experiment [3] it was 60 to 80%.

One may read the IC50 as the point on the concentration scale where inhibition reaches its midpoint. A high value points to weaker potency in that assay. Consider `Cn1ccc2c(O[C@@H]3CCNC3)cc(-c3ccc4c(c3)CN([C@H]3CCC(=O)NC3=O)C4=O)nc21` [Example 219, (S)-3-(5-(1-methyl-4-(((R)-pyrrolidin-3-yl)oxy)-1H-pyrrolo[2,3-b]pyridin-6-yl)-1-oxoisoindolin-2-yl) piperidine-2,6-dione], for which, in experiment [1], the DC50 lay within 100 to 1000 nM and the Dmax was in the range of 20 to 40%. In experiment [2], the DC50 was 10 to 100 nM and the Dmax lay within 40 to 60%. In experiment [4], the IC50 fell in the range of 1000 to 5000 nM.

With `Cn1ccc2c(CN3CCCC3)cc(-c3cc4c(cc3F)C(=O)N(C3CCC(=O)NC3=O)C4)nc21` (stereo not drawn) [Example 82, 3-(6-fluoro-5-(1-methyl-4-(pyrrolidin-1-ylmethyl)-1H-pyrrolo[2,3-b]pyridin-6-yl)-1-oxoisoindolin-2-yl) piperidine-2,6-dione], the figures for the DC50 in experiment [1] and in experiment [2] were > 10000 nM and 100 to 1000 nM, respectively. In addition, the figures for the Dmax in experiment [1] and in experiment [2] were < 20% and 20 to 40%, respectively. Moreover, in experiment [4], the IC50 is 5000 to 10000 nM.

For `O=C1CCC(N2Cc3cc(-c4cc(CN5CCC(O)CC5)c5ccn(C6CC6)c5n4)ccc3C2=O)C(=O)N1` (stereo not drawn) [Example 159, 3-(5-(1-cyclopropyl-4-((4-hydroxypiperidin-1-yl)methyl)-1H-pyrrolo[2,3-b]pyridin-6-yl)-1-oxoisoindolin-2-yl) piperidine-2,6-dione], in experiment [1], the DC50 lay within 10 to 100 nM and the Dmax fell in the range of 20 to 40%. For the same compound, in experiment [2], the DC50 is 1 to 10 nM and the Dmax lay in the range of 60 to 80%. For the same compound, the IC50 in experiment [4] fell in the range of 100 to 500 nM.

With `CCn1ccc2c(CN3CCC3)cc(-c3ccc4c(c3)CN(C3CCC(=O)NC3=O)C4=O)nc21` (stereo not drawn) [Example 98, 3-(5-(4-(azetidin-1-ylmethyl)-1-ethyl-1H-pyrrolo[2,3-b]pyridin-6-yl)-1-oxoisoindolin-2-yl) piperidine-2,6-dione], in experiment [1], the DC50 is > 10000 nM and the Dmax was < 20%. Also, in experiment [2], the DC50 is 1 to 10 nM and the Dmax is > 80%. Besides, in experiment [4], the IC50 was < 100 nM.

Take `Cn1ccc2c(CN3CCC(F)(F)CC3)cc(-c3ccc4c(c3)CN(C3CCC(=O)NC3=O)C4=O)nc21` (stereo not drawn) [Example 60, 3-(5-(4-((4,4-difluoropiperidin-1-yl)methyl)-1-methyl-1H-pyrrolo[2,3-b]pyridin-6-yl)-1-oxoisoindolin-2-yl) piperidine-2,6-dione]: in experiment [1], the DC50 is > 10000 nM and the Dmax was < 20%. In addition, in experiment [2], the DC50 is 1 to 10 nM and the Dmax lay within 60 to 80%. In experiment [4], this compound returned an IC50 of 500 to 1000 nM.

For the compound `Cn1ccc2c(CN3CCC4(CCC4)CC3)cc(-c3ccc4c(c3)CN(C3CCC(=O)NC3=O)C4=O)nc21` (stereo not drawn) [Example 69, 3-(5-(4-((7-azaspiro[3.5]nonan-7-yl)methyl)-1-methyl-1H-pyrrolo[2,3-b]pyridin-6-yl)-1-oxoisoindolin-2-yl) piperidine-2,6-dione], in experiment [1], the DC50 was > 10000 nM and the Dmax lay in the range of 20 to 40%. Moreover, in experiment [2], the DC50 was < 1 nM and the Dmax was > 80%. The IC50 in experiment [4] lay in the range of 100 to 500 nM.
